One assay deals with SMARCA2 (Homo sapiens, UniProt P51531). In words: HiBit assay in engineered HT1080 CRISPR knock-in cell, 6 hrs (B series), SMARCA2. In kind it is cell-based. The note with it: 6 hrs incubation; for DC50 / SMARC A2 HT1080 HiBit Dmax (%): HT1080 CRISPR knock-in cells; for DC50: read-out: SMARC A2 HT1080 HiBit DC50; for Dmax: HT-1080, HT1080 CRISPR knock-in cells, read-out: SMARC A2 HT1080 HiBit Dmax (%). In outline: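 Engineered HT1080 knock-in cells, 2000 cells/well, 6 hrs compound exposure, 37° C/5% CO2, 0.1% DMSO final. Lytic detection: LgBiT 1:100 plus HiBiT substrate 1:50 in lytic buffer, 10 min shake at RT, luminescence read.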
On the technique in general: HiBiT is a short tag that completes a luciferase, so light tracks the accessible tagged protein.

Another assay addresses SMARCA4 (Homo sapiens, UniProt P51532). In words: HiBit assay in engineered HT1080 CRISPR knock-in cell, 6 hrs (B series), SMARCA4. In kind it is cell-based. The conditions noted are these: 6 hrs incubation; for DC50: read-out: SMARC A4 HT1080 HiBit DC50; for Dmax: HT-1080, HT1080 CRISPR knock-in cells, read-out: SMARC A4 HT1080 HiBit Dmax(%). In outline: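 Compounds were dispensed first, then HT1080 knock-in cells added and incubated for 6 hrs at 37° C. Next, detection reagent containing LgBiT and lytic substrate was added. Plates were shaken 10 min and centrifuged, and luminescence was measured.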

Molecules are shown by their SMILES. Some results are limits rather than exact numbers.

SMARCA2, sequence (P51531 whole entry): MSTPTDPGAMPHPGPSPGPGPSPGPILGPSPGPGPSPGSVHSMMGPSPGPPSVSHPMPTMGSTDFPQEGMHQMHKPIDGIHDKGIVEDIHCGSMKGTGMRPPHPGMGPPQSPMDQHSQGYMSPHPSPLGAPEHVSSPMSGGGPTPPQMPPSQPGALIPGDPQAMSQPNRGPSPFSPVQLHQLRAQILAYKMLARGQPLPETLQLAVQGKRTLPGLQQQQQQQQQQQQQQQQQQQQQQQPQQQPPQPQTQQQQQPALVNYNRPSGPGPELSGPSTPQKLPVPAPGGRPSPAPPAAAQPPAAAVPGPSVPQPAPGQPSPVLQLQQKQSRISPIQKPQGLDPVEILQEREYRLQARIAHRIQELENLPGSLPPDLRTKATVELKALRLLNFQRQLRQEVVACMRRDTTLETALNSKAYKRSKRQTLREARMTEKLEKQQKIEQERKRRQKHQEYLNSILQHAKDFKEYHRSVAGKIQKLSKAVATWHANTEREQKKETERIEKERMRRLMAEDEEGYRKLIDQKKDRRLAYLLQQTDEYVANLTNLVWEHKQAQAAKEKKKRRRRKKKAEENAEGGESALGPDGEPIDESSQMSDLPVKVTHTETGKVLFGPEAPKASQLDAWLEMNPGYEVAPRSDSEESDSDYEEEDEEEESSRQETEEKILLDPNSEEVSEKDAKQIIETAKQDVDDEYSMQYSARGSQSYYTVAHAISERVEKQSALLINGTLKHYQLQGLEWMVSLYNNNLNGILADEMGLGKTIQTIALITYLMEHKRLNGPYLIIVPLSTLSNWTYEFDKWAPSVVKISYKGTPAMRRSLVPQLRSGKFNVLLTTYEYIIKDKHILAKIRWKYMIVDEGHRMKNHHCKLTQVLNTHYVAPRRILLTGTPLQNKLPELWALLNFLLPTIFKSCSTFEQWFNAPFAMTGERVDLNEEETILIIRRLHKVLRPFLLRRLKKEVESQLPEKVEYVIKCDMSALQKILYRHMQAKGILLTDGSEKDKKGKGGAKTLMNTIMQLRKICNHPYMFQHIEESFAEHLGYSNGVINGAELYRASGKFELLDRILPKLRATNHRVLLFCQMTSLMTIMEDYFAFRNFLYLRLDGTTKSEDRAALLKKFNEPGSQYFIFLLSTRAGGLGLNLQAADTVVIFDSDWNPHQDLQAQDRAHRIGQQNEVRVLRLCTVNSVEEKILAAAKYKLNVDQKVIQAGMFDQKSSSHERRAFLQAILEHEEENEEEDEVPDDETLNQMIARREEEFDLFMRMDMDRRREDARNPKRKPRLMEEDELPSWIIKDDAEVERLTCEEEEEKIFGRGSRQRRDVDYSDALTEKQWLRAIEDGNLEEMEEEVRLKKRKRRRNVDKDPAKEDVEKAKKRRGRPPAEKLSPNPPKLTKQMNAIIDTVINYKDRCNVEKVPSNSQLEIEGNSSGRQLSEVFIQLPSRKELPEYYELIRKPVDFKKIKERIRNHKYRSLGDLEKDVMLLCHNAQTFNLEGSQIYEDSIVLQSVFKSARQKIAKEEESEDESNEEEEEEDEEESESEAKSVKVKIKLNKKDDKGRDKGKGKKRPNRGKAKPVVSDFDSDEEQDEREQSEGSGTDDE
SMARCA4, sequence (P51532 whole entry): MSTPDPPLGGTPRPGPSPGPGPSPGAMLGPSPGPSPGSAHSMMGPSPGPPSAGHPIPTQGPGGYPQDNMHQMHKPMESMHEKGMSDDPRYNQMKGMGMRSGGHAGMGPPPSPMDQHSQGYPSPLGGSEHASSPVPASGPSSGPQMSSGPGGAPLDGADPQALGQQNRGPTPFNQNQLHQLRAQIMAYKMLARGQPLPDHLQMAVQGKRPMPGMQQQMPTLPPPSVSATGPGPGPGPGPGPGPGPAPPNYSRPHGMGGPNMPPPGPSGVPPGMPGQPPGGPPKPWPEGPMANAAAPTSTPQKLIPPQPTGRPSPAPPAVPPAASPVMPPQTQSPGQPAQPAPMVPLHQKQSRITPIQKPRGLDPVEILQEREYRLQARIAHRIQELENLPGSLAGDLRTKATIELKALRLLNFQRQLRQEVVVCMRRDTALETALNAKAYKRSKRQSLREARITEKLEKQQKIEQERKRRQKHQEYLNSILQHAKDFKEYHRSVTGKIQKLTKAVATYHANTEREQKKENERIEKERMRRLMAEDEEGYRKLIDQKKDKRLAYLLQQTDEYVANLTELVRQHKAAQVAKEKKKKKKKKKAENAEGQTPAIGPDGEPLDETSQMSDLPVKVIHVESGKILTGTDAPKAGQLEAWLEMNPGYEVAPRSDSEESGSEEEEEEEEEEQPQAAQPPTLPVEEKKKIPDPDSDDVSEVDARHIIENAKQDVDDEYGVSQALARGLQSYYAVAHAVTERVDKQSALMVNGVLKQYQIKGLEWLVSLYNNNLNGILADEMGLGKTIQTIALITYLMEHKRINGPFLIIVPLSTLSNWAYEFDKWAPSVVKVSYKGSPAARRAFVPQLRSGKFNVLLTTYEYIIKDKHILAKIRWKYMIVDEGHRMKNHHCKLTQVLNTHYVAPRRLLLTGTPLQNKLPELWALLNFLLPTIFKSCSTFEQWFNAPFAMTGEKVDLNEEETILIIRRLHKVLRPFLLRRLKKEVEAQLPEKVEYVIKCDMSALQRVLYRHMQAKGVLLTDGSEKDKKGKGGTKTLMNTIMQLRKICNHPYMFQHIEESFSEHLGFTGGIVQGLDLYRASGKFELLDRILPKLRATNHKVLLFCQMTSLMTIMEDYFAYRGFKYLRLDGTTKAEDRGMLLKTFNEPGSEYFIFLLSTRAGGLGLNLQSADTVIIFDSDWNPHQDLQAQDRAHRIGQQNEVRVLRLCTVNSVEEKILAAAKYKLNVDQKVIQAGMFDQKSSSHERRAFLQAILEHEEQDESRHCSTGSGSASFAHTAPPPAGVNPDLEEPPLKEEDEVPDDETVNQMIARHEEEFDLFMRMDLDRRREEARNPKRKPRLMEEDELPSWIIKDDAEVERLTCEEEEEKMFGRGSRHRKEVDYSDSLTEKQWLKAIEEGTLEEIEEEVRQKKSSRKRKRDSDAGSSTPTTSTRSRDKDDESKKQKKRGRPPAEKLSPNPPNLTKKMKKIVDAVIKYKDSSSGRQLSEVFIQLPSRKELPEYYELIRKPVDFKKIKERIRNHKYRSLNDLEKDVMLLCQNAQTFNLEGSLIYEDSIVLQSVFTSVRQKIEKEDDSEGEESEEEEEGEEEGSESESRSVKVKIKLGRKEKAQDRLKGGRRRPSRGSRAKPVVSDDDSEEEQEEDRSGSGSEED

In the case of `Cc1ncsc1-c1ccc([C@H](C)NC(=O)[C@@H]2C[C@@H](O)CN2C(=O)[C@@H](NC(=O)CCn2cc(-c3ccc4c(c3)C(C)(C)c3nc(=O)c5c(Cl)cccc5n3-4)cn2)C(C)(C)C)cc1` [Compound B101, (2S,4R)-1-((S)-2-(3-(4-(4-chloro-7,7-dimethyl-5-oxo-5,7-dihydroindolo[1,2-a]quinazolin-9-yl)-1H-pyrazol-1-yl)propanamido)-3,3-dimethylbutanoyl)-4-hydroxy-N-((S)-1-(4-(4-methylthiazol-5-yl)phenyl)ethyl)pyrrolidine-2-carboxamide], the DC50 at SMARCA2 and at SMARCA4 (HT1080 CRISPR knock-in cells) was above 1000 nM throughout. For the same compound, the Dmax at SMARCA2 and on SMARCA4 was below 50% throughout.
As for `Cc1ncsc1-c1ccc([C@H](C)NC(=O)[C@@H]2C[C@@H](O)CN2C(=O)[C@@H](NC(=O)C23CCC(CN4CCC(c5ccc6c(c5)-n5c(nc(=O)c7c(Cl)cccc75)C6(C)C)CC4)(CC2)C3)C(C)(C)C)cc1` [Compound B77, (2S,4R)-1-((S)-2-(4-((4-(4-chloro-7,7-dimethyl-5-oxo-5,7-dihydroindolo[1,2-a]quinazolin-10-yl)piperidin-1-yl)methyl)bicyclo[2.2.1]heptane-1-carboxamido)-3,3-dimethylbutanoyl)-4-hydroxy-N-((S)-1-(4-(4-methylthiazol-5-yl)phenyl)ethyl)pyrrolidine-2-carboxamide], the DC50 on SMARCA2 is below 100 nM; at SMARCA4 (HT1080 CRISPR knock-in cells) it was 100 to 500 nM. The Dmax on SMARCA2 is above 90%; at SMARCA4, 50 to 69%.
For the compound `Cc1cc(C(C(=O)N2C[C@H](O)C[C@H]2C(=O)N[C@@H](C)c2ccc(-c3scnc3C#CCN3CCC(c4ccc5c(c4)C(C)(C)c4nc(=O)c6c(Cl)cccc6n4-5)CC3)cc2)C(C)C)on1` (stereo partly drawn) [Compound B144, (2S,4R)—N—((S)-1-(4-(4-(3-(4-(4-chloro-7,7-dimethyl-5-oxo-5,7-dihydroindolo[1,2-a]quinazolin-9-yl)piperidin-1-yl)prop-1-yn-1-yl)thiazol-5-yl)phenyl)ethyl)-4-hydroxy-1-(3-methyl-2-(3-methylisoxazol-5-yl)butanoyl)pyrrolidine-2-carboxamide], the DC50 is 100 to 500 nM at SMARCA2 and below 100 nM at SMARCA4 (HT1080 CRISPR knock-in cells). The Dmax at SMARCA2 and at SMARCA4 was 50 to 69% in each case.
Turning to `Cc1ncsc1-c1ccc([C@H](C)NC(=O)[C@@H]2C[C@@H](O)CN2C(=O)[C@@H](NC(=O)CCCN2CCC(c3ccc4c(c3)-n3c(nc(=O)c5c(Cl)cccc53)C4(C)C)CC2)C(C)(C)C)cc1` [Compound B45, (2S,4R)-1-((S)-2-(4-(4-(4-chloro-7,7-dimethyl-5-oxo-5,7-dihydroindolo[1,2-a]quinazolin-10-yl)piperidin-1-yl)butanamido)-3,3-dimethylbutanoyl)-4-hydroxy-N-((S)-1-(4-(4-methylthiazol-5-yl)phenyl)ethyl)pyrrolidine-2-carboxamide], the DC50 on SMARCA2 is 100 to 500 nM; at SMARCA4 (HT1080 CRISPR knock-in cells), above 1000 nM. The Dmax on SMARCA2 was 70 to 90%; on SMARCA4, below 50%.
On to `Cc1ncsc1-c1ccc2c(c1)CCC[C@@H]2NC(=O)[C@@H]1C[C@@H](O)CN1C(=O)[C@@H](n1cc([C@H]2CC[C@H](CN3CCC(c4ccc5c(c4)-n4c(nc(=O)c6c(Cl)cccc64)C5(C)C)CC3)CC2)nn1)C(C)(C)C` [Compound B146, (2S,4R)-1-((S)-2-(4-((1r,4S)-4-((4-(4-chloro-7,7-dimethyl-5-oxo-5,7-dihydroindolo[1,2-a]quinazolin-10-yl)piperidin-1-yl)methyl)cyclohexyl)-1H-1,2,3-triazol-1-yl)-3,3-dimethylbutanoyl)-4-hydroxy-N-((S)-6-(4-methylthiazol-5-yl)-1,2,3,4-tetrahydronaphthalen-1-yl)pyrrolidine-2-carboxamide], for which the DC50 is below 100 nM on SMARCA2 and 100 to 500 nM on SMARCA4 (HT1080 CRISPR knock-in cells). Besides, the Dmax was above 90% at SMARCA2 and 50 to 69% on SMARCA4.
As for `Cc1ncsc1-c1ccc([C@H](CC(=O)NCCN2CCC(c3ccc4c(c3)-n3c(nc(=O)c5c(Cl)cccc53)C4(C)C)CC2)NC(=O)[C@@H]2C[C@@H](O)CN2C(=O)[C@@H](NC(=O)C2(F)CC2)C(C)(C)C)cc1` [Compound B44, (2S,4R)-N-((S)-3-((2-(4-(4-chloro-7,7-dimethyl-5-oxo-5,7-dihydroindolo[1,2-a]quinazolin-10-yl)piperidin-1-yl)ethyl)amino)-1-(4-(4-methylthiazol-5-yl)phenyl)-3-oxopropyl)-1-((S)-2-(1-fluorocyclopropane-1-carboxamido)-3,3-dimethylbutanoyl)-4-hydroxypyrrolidine-2-carboxamide], the DC50 at SMARCA2 and at SMARCA4 (HT1080 CRISPR knock-in cells) was 100 to 500 nM throughout. Moreover, the Dmax on SMARCA2 and at SMARCA4 was below 50% throughout.
Take `Cc1ncsc1-c1ccc([C@H](C)NC(=O)[C@@H]2C[C@@H](O)CN2C(=O)[C@@H](c2cc(OCC#Cc3cccc4c3C(C)(C)c3nc(=O)c5c(Cl)cccc5n3-4)no2)C(C)C)cc1` [Compound B130, (2S,4R)-1-((R)-2-(3-((3-(4-chloro-7,7-dimethyl-5-oxo-5,7-dihydroindolo[1,2-a]quinazolin-8-yl)prop-2-yn-1-yl)oxy)isoxazol-5-yl)-3-methylbutanoyl)-4-hydroxy-N-((S)-1-(4-(4-methylthiazol-5-yl)phenyl)ethyl)pyrrolidine-2-carboxamide]: the DC50 on SMARCA2 was below 100 nM; on SMARCA4 (HT1080 CRISPR knock-in cells) it was 100 to 500 nM. Moreover, the Dmax was above 90% on SMARCA2 and 50 to 69% at SMARCA4.
Consider `Cc1ncsc1-c1ccc([C@H](CC(=O)NCC2CCC(N3CCC(c4ccc5c(c4)-n4c(nc(=O)c6c(Cl)cccc64)C5(C)C)CC3)CC2)NC(=O)[C@@H]2C[C@@H](O)CN2C(=O)[C@@H](NC(=O)C2(F)CC2)C(C)(C)C)cc1` (stereo partly drawn) [Compound B53, (2S,4R)-N-((S)-3-(((4-(4-(4-chloro-7,7-dimethyl-5-oxo-5,7-dihydroindolo[1,2-a]quinazolin-10-yl)piperidin-1-yl)cyclohexyl)methyl)amino)-1-(4-(4-methylthiazol-5-yl)phenyl)-3-oxopropyl)-1-((S)-2-(1-fluorocyclopropane-1-carboxamido)-3,3-dimethylbutanoyl)-4-hydroxypyrrolidine-2-carboxamide], for which the DC50 on SMARCA2 and on SMARCA4 (HT1080 CRISPR knock-in cells) was 100 to 500 nM each time. In addition, the Dmax on SMARCA2 lay in the range of 70 to 90%; on SMARCA4, 50 to 69%.
`Cc1ncsc1-c1ccc([C@H](C)NC(=O)[C@@H]2C[C@@H](O)CN2C(=O)[C@H](C(C)C)n2cc(C3CCC(c4cccc5c4C(C)(C)c4nc(=O)c6c(Cl)cccc6n4-5)CC3)nn2)cc1` (stereo partly drawn) [Compound B161, (2S,4R)-1-((S)-2-(4-(4-(4-chloro-7,7-dimethyl-5-oxo-5,7-dihydroindolo[1,2-a]quinazolin-8-yl)cyclohexyl)-1H-1,2,3-triazol-1-yl)-3-methylbutanoyl)-4-hydroxy-N-((S)-1-(4-(4-methylthiazol-5-yl)phenyl)ethyl)pyrrolidine-2-carboxamide]: on SMARCA2, the “SMARC A2 HT1080 HiBit Dmax (%)” value was “A (A (>90% degradation))” and the DC50 is below 100 nM. At SMARCA4 (HT1080 CRISPR knock-in cells), the “SMARC A4 HT1080 HiBit Dmax(%)” value is “C (C (50-69% degradation))” and the DC50 was below 100 nM.
As for `Cc1cc(C(C(=O)N2C[C@H](O)C[C@H]2C(=O)N[C@@H](CCN2CCC(c3cccc4c3C(C)(C)c3nc(=O)c5c(Cl)cccc5n3-4)CC2)c2ccc(-c3scnc3C)cc2)C(C)C)on1` (stereo partly drawn) [Compound B152, (2S,4R)—N—((S)-3-(4-(4-chloro-7,7-dimethyl-5-oxo-5,7-dihydroindolo[1,2-a]quinazolin-8-yl)piperidin-1-yl)-1-(4-(4-methylthiazol-5-yl)phenyl)propyl)-4-hydroxy-1-(3-methyl-2-(3-methylisoxazol-5-yl)butanoyl)pyrrolidine-2-carboxamide], on SMARCA2, the “SMARC A2 HT1080 HiBit Dmax (%)” value is “A (A (>90% degradation))” and the DC50 is below 100 nM. Besides, on SMARCA4 (HT1080 CRISPR knock-in cells), the DC50 is below 100 nM. Moreover, the Dmax at SMARCA4 is 70 to 90%.
Regarding `Cc1ncsc1-c1ccc([C@H](CN2CCOCC2)NC(=O)[C@@H]2C[C@@H](O)CN2C(=O)[C@H](C(C)C)n2cc([C@H]3CC[C@H](CN4CCC(c5ccc6c(c5)-n5c(nc(=O)c7c(Br)cccc75)C65CCCCC5)CC4)CC3)nn2)cc1` [Compound B106, (2S,4R)-1-((S)-2-(4-((1r,4S)-4-((4-(4′-bromo-5′-oxo-5′H-spiro[cyclohexane-1,7′-indolo[1,2-a]quinazolin]-10′-yl)piperidin-1-yl)methyl)cyclohexyl)-1H-1,2,3-triazol-1-yl)-3-methylbutanoyl)-4-hydroxy-N-((R)-1-(4-(4-methylthiazol-5-yl)phenyl)-2-morpholinoethyl)pyrrolidine-2-carboxamide], the DC50 on SMARCA2 and at SMARCA4 (HT1080 CRISPR knock-in cells) was below 100 nM throughout. Moreover, the Dmax on SMARCA2 and at SMARCA4 was above 90% throughout.
For the compound `Cc1ncsc1-c1ccc([C@H](C)NC(=O)[C@@H]2C[C@@H](O)CN2C(=O)[C@@H](NC(=O)CCCn2cc(-c3ccc4c(c3)C(C)(C)c3nc(=O)c5c(Cl)cccc5n3-4)cn2)C(C)(C)C)cc1` [Compound B93, (2S,4R)-1-((S)-2-(4-(4-(4-chloro-7,7-dimethyl-5-oxo-5,7-dihydroindolo[1,2-a]quinazolin-9-yl)-1H-pyrazol-1-yl)butanamido)-3,3-dimethylbutanoyl)-4-hydroxy-N—((S)-1-(4-(4-methylthiazol-5-yl)phenyl)ethyl)pyrrolidine-2-carboxamide], the DC50 on SMARCA2 and on SMARCA4 (HT1080 CRISPR knock-in cells) was 100 to 500 nM throughout. For the same compound, the Dmax on SMARCA2 was 50 to 69%; on SMARCA4, below 50%.

Values taken from patent publication US20260092071A1, “COMPOUNDS AND COMPOSITIONS AS SMARCA2/4 DEGRADERS AND USES THEREOF” (REGENTS OF THE UNIVERSITY OF MICHIGAN, priority 2022, published 2026).
